Laboratory results reported in BindingDB's records for PubMed 32853683 (Peking Union Medical College, 2020).

Tests used:
[1] = Inhibition of trypsin-like activity of human 20S proteasome beta 2
[2] = Inhibition of caspase-like activity of human 20S proteasome beta 1

SMILES | IC50 [1] [µM] | IC50 [2] [µM]
CCCc1ccc(OCC(=O)N(Cc2nc(-c3cccnc3)no2)C(C)C)cc1 | > 50 | > 50
CCCc1ccc(OCC(=O)N(Cc2cccc(-c3cccnc3)c2)C(C)C)cc1 | > 50 | > 50
CCCc1ccc(OCC(=O)N(Cc2nc(-c3ccco3)no2)C(C)C)cc1 | > 50 | > 50
CCCc1ccc(OCC(=O)N(Cc2nc(-c3cccs3)no2)C(C)C)cc1 | > 50 | > 50
